Assay results taken from article PMC5007650, “Crystal structure of the two-subunit tRNA m^1A58 methyltransferase TRM6-TRM61 from Saccharomyces cerevisiae” (Scientific Reports, 2016).

How the values were obtained:
Experiment in all cases: isothermal titration calorimetry, single-site fit
Format in all cases: binding
TRM6-TRM61 holoenzyme [1] = biological target: T1, TRM6-TRM61 holoenzyme (Saccharomyces cerevisiae, UniProt P46959, F140A)
T1 construct: gene GCD14; full-length TRM6 (478 residues) and TRM61 co-expressed from pETDuet-TRM6-TRM61 in bacteria; Ni-NTA and gel filtration; with tRNA (adenine(58)-N(1))-methyltransferase non-catalytic subunit TRM6
T1 sequence (P46959 whole entry F140A): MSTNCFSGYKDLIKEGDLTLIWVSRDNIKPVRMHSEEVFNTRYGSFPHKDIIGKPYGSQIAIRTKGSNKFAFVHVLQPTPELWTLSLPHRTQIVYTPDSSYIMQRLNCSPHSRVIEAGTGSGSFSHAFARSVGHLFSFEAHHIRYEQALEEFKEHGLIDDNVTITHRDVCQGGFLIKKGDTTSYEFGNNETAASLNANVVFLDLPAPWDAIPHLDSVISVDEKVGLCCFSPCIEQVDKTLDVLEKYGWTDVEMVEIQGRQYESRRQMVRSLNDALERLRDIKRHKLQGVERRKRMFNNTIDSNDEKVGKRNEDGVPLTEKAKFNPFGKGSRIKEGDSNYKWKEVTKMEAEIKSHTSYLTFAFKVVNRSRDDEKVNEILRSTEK
T1 sequence (P41814 whole entry partner): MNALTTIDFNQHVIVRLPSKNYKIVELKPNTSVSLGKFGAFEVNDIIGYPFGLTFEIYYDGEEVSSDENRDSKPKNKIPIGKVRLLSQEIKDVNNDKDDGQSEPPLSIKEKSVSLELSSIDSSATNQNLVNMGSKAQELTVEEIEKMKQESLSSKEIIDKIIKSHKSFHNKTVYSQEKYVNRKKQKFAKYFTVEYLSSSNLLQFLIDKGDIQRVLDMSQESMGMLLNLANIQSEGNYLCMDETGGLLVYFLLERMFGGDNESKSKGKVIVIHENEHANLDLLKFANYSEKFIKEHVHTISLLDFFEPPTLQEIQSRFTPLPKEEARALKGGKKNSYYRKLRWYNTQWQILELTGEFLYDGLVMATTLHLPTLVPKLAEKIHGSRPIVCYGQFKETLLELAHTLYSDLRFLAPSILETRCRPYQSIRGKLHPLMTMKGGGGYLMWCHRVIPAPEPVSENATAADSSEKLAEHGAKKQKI
From the text: (§1) isothermal titration calorimetry, single-site fit on TRM6-TRM61 holoenzyme

TRM6-TRM61 holoenzyme [2] = biological target: T2, TRM6-TRM61 holoenzyme (Saccharomyces cerevisiae, UniProt P46959, F124A)
T2 construct: gene GCD14; full-length TRM6 (478 residues) and TRM61 co-expressed from pETDuet-TRM6-TRM61 in bacteria; Ni-NTA and gel filtration; with tRNA (adenine(58)-N(1))-methyltransferase non-catalytic subunit TRM6
T2 sequence (P46959 whole entry F124A): as the sequence (P46959 whole entry F140A) above, with F124A, A140F counted along it
T2 sequence (P41814 whole entry partner): as the sequence (P41814 whole entry partner) above
From the text: as §1

TRM6-TRM61 holoenzyme [3] = biological target: T3, TRM6-TRM61 holoenzyme (Saccharomyces cerevisiae, UniProt P46959, V169A)
T3 construct: gene GCD14; full-length TRM6 (478 residues) and TRM61 co-expressed from pETDuet-TRM6-TRM61 in bacteria; Ni-NTA and gel filtration; with tRNA (adenine(58)-N(1))-methyltransferase non-catalytic subunit TRM6
T3 sequence (P46959 whole entry V169A): as the sequence (P46959 whole entry F140A) above, with A140F, V169A counted along it
T3 sequence (P41814 whole entry partner): as the sequence (P41814 whole entry partner) above
From the text: as §1

TRM6-TRM61 holoenzyme [4] = biological target: T4, TRM6-TRM61 holoenzyme (Saccharomyces cerevisiae, UniProt P46959)
T4 construct: gene GCD14; full-length TRM6 (478 residues) and TRM61 co-expressed from pETDuet-TRM6-TRM61 in bacteria; Ni-NTA and gel filtration; with tRNA (adenine(58)-N(1))-methyltransferase non-catalytic subunit TRM6
T4 sequence (P46959 whole entry): as the sequence (P46959 whole entry F140A) above, with A140F counted along it
T4 sequence (P41814 whole entry partner): as the sequence (P41814 whole entry partner) above

Kd (TRM6-TRM61 holoenzyme [1]): 787 ± 64.5 µM | Kd (TRM6-TRM61 holoenzyme [2]): 317 ± 34.7 µM | Kd (TRM6-TRM61 holoenzyme [3]): 409 ± 74.7 µM | Kd (TRM6-TRM61 holoenzyme [4]): 44.3 ± 4.55 µM
Structure (SMILES): C[S+](CC[C@H](N)C(=O)O)C[C@H]1O[C@@H](n2cnc3c(N)ncnc32)[C@H](O)[C@@H]1O (stereo partly shown) [SAM]
